This experiment concerns spiral strips of the pulmonary artery of the guinea-pig. The experiment can be described thus: Relaxation of potassium-depolarised, CaCl2-contracted pulmonary artery spiral strips (modified method of Godfraind and Kaba and of Schuman et al.). The following applies: for IC50: Cavia porcellus, 40 mmol/l potassium depolarised, contraction induced by 0.5 mmol/l CaCl2, cumulative addition in 1/2 log 10 steps, average of 4 to 6 vessel strips, read-out: IC50 (concentration of the test substance which inhibits the contraction by 50%); for Duration of action: time needed after addition of the test substance until the starting value is obtained again. On the procedure:
The pharmacological action of the compounds of the formula I was determined by a modified method of Godfraind and Kaba (Arch. Int. Pharmacodyn. Ther. 196, (Suppl) 35 to 49, 1972) and of Schuman et al. (Naunyn-Schmiedeberg,s Arch. Pharmacol. 289, 409 to 418, 1975). In this connection, spiral strips of the pulmonary artery of the guinea-pig are depolarised with 40 mmol/1 of potassium after equilibration in calcium-free Tyrode solution. An addition of 0.5 mmol/1 of CaCl2 then induces a contraction. The relaxing action of the test substance is determined by cumulative addition in 1/2 log 10 stepped concentrations. From the concentration-effect curve (abscissa: -log mol/1 of test substance, ordinate: % inhibition of the maximum contraction, average value of 4 to 6 vessel strips), the concentration of the test substance is determined which inhibits the contraction by 50% (=IC50, mol/1). The duration of action of the test substance is given by the time which is needed after the addition of the test substance until the starting value is obtained again. […] On the other hand, the similarly active compound SIN-1 is clearly surpassed by the compounds according to the invention with respect to its duration of action.

Where a name gives a salt, the structure may show the parent alone.

In the case of `Cl.N=c1c[n+](N2CCOCC2)[n-]o1` [SIN-1, 3Morpholinosydnone imine hydrochloride, reference compound], the IC50 was found to be 1 µM and the Duration of action is on record as 80 min.
For the molecule `CN(C)S(=O)(=O)N1CCN([n+]2cc(=N)o[n-]2)C(C)(C)C1` [Example 3, 3-(2,2-Dimethyl-4-dimthylaminosulphonylpiperazin-1-yl)sydnone imine hydrochloride], the IC50 amounted to 2.5 µM and the Duration of action is recorded as 200 min.
On to `CC1(C)CN(S(C)(=O)=O)CCN1[n+]1cc(=N)o[n-]1.Cl` [Example 1, 3-(2,2-Dimethyl-4-methanesulphonylpiperazin-1-yl)sydnone imine hydrochloride], for which the IC50 worked out at 1.9 µM and the Duration of action is 200 min.
With `Cc1ccc(S(=O)(=O)N2CCN([n+]3cc(=N)o[n-]3)C(C)(C)C2)cc1.Cl` [Example 2, 3-(2,2-Dimethyl-4-tosylpiperazin-1-yl)sydnone imine hydrochloride], the IC50 came to 0.65 µM and the Duration of action is 220 min.
Turning to `CC(C)C(=O)N=c1c[n+](N2CCN(S(C)(=O)=O)CC2(C)C)[n-]o1` [CH3, drawing 12], the IC50 was determined as 3 µM and the Duration of action came out at 210 min.
For `CCOC(=O)[N-]c1cn(N2CCOCC2)n[o+]1` [Molsidomine, NEthoxycarbonyl-3-morpholinosydnone imine, reference compound], the IC50 amounted to 300 µM and the Duration of action turned out to be 100 min.

The record behind these values is patent publication US5155109A, “3-piperazinosydnone imines, process for their preparation and their use” (Cassella Aktiengesellschaft, priority 1990, dated 1992).
